# From patent US6335371B1, “Method for inducing cognition enhancement” (Orion Corporation, priority 2000, dated 2002)
# What was measured:
# [1] = Randomised placebo-controlled double-blind study, cognitive part of Hamilton Anxiety Scale (HAM-A; concentration and memory items); format: in vivo
# Description: (§1) The cognition enhancement properties of deramciclane were studied in a randomised placebo-controlled double-blind study. The subjects were randomly assigned to four parallel groups to receive one tablet twice daily (b.i.d) of a placebo, 5 mg (=10 mg/day), 15 mg (=30 mg/day), or 30 mg (=60 mg/day) deramciclane. The study started with a one-week placebo run-in period, followed by an eight-week placebo-controlled active treatment and a two-week placebo washout period.
# (§2) The efficacy of deramciclane on cognition enhancement was studied using the cognitive part of Hamilton Anxiety Scale (HAM-A) which consists of the concentration and memory items. Cognition enhancement was also assessed using Udvalg for Kliniske Undersogelser (UKU) scale.
# [2] = Randomised placebo-controlled double-blind study, Udvalg for Kliniske Undersogelser (UKU) scale, concentration difficulties; format: in vivo; details: 5, 15, 30 mg b.i.d
# Description: as §1, §2
compound,measurement,setting,value
"CN(C)CCO[C@]1(c2ccccc2)C[C@H]2CC[C@]1(C)C2(C)C [deramciclane, (1R,2S,4R)-(−)-2-phenyl 2-(dimethylaminoethoxy)-1,7,7-trimethyl-bicyclo[2.2.1]heptane]","HAM-A Intellectual, cognitive: subjects rated Mild, number (%)","[1]; After 8 weeks, 5 mg b.i.d",20 (47%)
same,"HAM-A Intellectual, cognitive: subjects rated Moderate, number (%)","[1]; After 8 weeks, 5 mg b.i.d",6 (14%)
same,"HAM-A Intellectual, cognitive: subjects rated Not Present, number (%)","[1]; After 8 weeks, 5 mg b.i.d",15 (35%)
same,"HAM-A Intellectual, cognitive: subjects rated Severe, number (%)","[1]; After 8 weeks, 5 mg b.i.d",2 (5%)
same,"HAM-A Intellectual, cognitive: subjects rated Mild, number (%)","[1]; After 8 weeks, 15 mg b.i.d.",19 (43%)
same,"HAM-A Intellectual, cognitive: subjects rated Moderate, number (%)","[1]; After 8 weeks, 15 mg b.i.d.",3 (7%)
same,"HAM-A Intellectual, cognitive: subjects rated Not Present, number (%)","[1]; After 8 weeks, 15 mg b.i.d.",21 (48%)
same,"HAM-A Intellectual, cognitive: subjects rated Severe, number (%)","[1]; After 8 weeks, 15 mg b.i.d.",1 (2%)
same,"HAM-A Intellectual, cognitive: subjects rated Mild, number (%)","[1]; After 8 weeks, 30 mg b.i.d.",14 (30%)
same,"HAM-A Intellectual, cognitive: subjects rated Moderate, number (%)","[1]; After 8 weeks, 30 mg b.i.d.",10 (22%)
same,"HAM-A Intellectual, cognitive: subjects rated Not Present, number (%)","[1]; After 8 weeks, 30 mg b.i.d.",22 (48%)
same,"HAM-A Intellectual, cognitive: subjects rated Severe, number (%)","[1]; After 8 weeks, 30 mg b.i.d.",0
same,"HAM-A Intellectual, cognitive: subjects rated Mild, number (%)","[1]; Baseline, 5 mg b.i.d group",17 (31%)
same,"HAM-A Intellectual, cognitive: subjects rated Moderate, number (%)","[1]; Baseline, 5 mg b.i.d group",33 (61%)
same,"HAM-A Intellectual, cognitive: subjects rated Not Present, number (%)","[1]; Baseline, 5 mg b.i.d group",3 (6%)
same,"HAM-A Intellectual, cognitive: subjects rated Severe, number (%)","[1]; Baseline, 5 mg b.i.d group",1 (2%)
same,"HAM-A Intellectual, cognitive: subjects rated Mild, number (%)","[1]; Baseline, 15 mg b.i.d. group",12 (24%)
same,"HAM-A Intellectual, cognitive: subjects rated Moderate, number (%)","[1]; Baseline, 15 mg b.i.d. group",35 (69%)
same,"HAM-A Intellectual, cognitive: subjects rated Not Present, number (%)","[1]; Baseline, 15 mg b.i.d. group",3 (6%)
same,"HAM-A Intellectual, cognitive: subjects rated Severe, number (%)","[1]; Baseline, 15 mg b.i.d. group",1 (2%)
same,"HAM-A Intellectual, cognitive: subjects rated Mild, number (%)","[1]; Baseline, 30 mg b.i.d. group",15 (28%)
same,"HAM-A Intellectual, cognitive: subjects rated Moderate, number (%)","[1]; Baseline, 30 mg b.i.d. group",28 (53%)
same,"HAM-A Intellectual, cognitive: subjects rated Not Present, number (%)","[1]; Baseline, 30 mg b.i.d. group",3 (6%)
same,"HAM-A Intellectual, cognitive: subjects rated Severe, number (%)","[1]; Baseline, 30 mg b.i.d. group",7 (13%)
same,Effect on cognition measured by the cognitive part of the HAM-A,"[1]; eight-week treatment, 5, 15 or 30 mg b.i.d",improved the cognition
same,"Trend analysis (dose-response relationship), concentration difficulties, UKU-scale",[2],statistically significant positive correlation
